# Data from patent US20240150377A1, “MODULATORS OF CYSTIC FIBROSIS TRANSMEMBRANE CONDUCTANCE REGULATOR” (VERTEX PHARMACEUTICALS INCORPORATED, priority 2020, published 2024).
# Read-outs that look alike come from different tables or passages of the source.
# Target: T1, CFTR (Homo sapiens, UniProt P13569, DEL508-508)
# T1 construct: endogenous in cells; host or cells: primary human bronchial epithelial cells from CF subjects (F508del/MF-HBE), differentiated at air-liquid interface
# Test: HBE assay: Ussing chamber assay of CFTR-mediated short-circuit currents
# Format: cell-based
# Conditions: for EC50: read-out: HBE EC50; for Emax: read-out: HBE Max Activity (%); for activation at 10 µM: read-out: HBE Activity at 10 μM (%)
# Outline: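 CFTR-mediated Isc (μA/cm²) equals the peak response to apical 20 μM forskolin minus the residual after a 20 μM each BPO/GlyH-101/CFTR inhibitor 172 cocktail, recorded in Ussing chambers at Vhold 0 mV, 37 °C, pH 7.4, with 30 μM apical amiloride. Cells were F508del/MF HBE cultures preincubated 18-24 h with corrector (concentration range or 10 μM) plus 1 μM ivacaftor in 20% human serum.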
# T1 sequence (P13569 with tags, fused parts or gaps DEL508-508): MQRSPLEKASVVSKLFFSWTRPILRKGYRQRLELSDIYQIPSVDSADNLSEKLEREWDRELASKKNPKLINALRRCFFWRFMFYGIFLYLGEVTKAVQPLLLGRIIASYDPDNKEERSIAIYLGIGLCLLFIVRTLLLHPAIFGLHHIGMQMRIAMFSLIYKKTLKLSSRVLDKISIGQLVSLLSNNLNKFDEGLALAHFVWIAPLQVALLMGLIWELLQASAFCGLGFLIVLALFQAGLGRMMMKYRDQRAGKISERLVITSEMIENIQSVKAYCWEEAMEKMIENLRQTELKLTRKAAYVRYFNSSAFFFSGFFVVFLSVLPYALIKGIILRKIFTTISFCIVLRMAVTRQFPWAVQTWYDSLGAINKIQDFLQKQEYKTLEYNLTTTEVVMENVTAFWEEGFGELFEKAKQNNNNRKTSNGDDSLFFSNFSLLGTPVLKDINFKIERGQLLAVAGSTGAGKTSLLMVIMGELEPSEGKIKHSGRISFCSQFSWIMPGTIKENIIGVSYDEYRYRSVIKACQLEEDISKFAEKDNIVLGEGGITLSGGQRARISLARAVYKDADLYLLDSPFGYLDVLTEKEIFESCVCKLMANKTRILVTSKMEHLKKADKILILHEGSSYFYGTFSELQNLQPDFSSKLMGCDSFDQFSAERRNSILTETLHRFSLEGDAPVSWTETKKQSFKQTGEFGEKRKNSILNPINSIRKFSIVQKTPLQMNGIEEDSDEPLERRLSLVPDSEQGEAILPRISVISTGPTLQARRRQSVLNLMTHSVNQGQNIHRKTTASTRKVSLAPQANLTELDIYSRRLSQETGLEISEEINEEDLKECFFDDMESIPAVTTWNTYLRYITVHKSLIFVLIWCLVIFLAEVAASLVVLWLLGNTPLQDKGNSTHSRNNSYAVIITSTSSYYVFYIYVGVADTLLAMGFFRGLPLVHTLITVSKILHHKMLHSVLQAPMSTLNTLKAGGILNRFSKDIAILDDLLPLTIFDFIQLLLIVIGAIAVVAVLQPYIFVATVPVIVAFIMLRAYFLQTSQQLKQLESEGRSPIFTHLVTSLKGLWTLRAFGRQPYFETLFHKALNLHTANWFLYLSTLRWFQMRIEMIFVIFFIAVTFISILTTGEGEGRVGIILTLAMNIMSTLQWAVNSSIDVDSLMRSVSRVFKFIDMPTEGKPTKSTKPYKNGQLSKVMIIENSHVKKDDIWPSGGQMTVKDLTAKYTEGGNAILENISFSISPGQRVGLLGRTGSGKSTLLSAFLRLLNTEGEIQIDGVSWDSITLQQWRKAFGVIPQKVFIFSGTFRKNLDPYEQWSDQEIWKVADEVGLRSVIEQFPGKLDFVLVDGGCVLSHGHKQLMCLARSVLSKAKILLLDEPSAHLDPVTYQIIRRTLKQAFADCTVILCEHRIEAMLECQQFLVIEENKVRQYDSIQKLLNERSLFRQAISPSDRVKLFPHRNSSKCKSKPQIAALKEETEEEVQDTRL
Structure (SMILES),EC50 (Table 12) [µM],Emax (Table 12) [%],activation at 10 µM (Table 13) [%],other results
Cc1cccc(C)c1-c1cc2nc(n1)NS(=O)(=O)c1cccc(c1)C(=O)N(Cc1cccc(N(CCOC(C)C)C(C)C)n1)[C@H](CC(C)(C)C)CO2 [Compound 236],,,,EC50 (Table 13): 1 to 3 µM; Emax (Table 13): > 60%
Cc1cccc(C)c1-c1cc2nc(n1)NS(=O)(=O)c1cccc(c1)C(=O)N(Cc1ccc(C3=CCCCC3)nn1)[C@H](CC(C)(C)C)CO2 [Compound 237],,,,activation at 10 µM (Table 12): > 600%
Cc1cccc(C)c1-c1cc2nc(n1)NS(=O)(=O)c1cccc(c1)C(=O)N(Cc1ccc(N3CCC(C)(C)C3)nn1)[C@H](CC(C)(C)C)CO2 [Compound 238],< 1,30 to 60,,
Cc1cccc(C)c1-c1cc2nc(n1)NS(=O)(=O)c1cccc(c1)C(=O)N(Cc1ncc(OC(C)C)cn1)[C@H](CC(C)C)CO2 [Compound 239],1 to 3,> 60,,
Cc1cccc(C)c1-c1cc2nc(n1)NS(=O)(=O)c1cccc(c1)C(=O)N(Cc1cnc(C3CCOCC3)cn1)[C@H](CC(C)C)CO2 [Compound 240],< 1,> 60,,
Cc1cccc(C(C)C)c1-c1cc2nc(n1)NS(=O)(=O)c1cccc(c1)C(=O)N(Cc1ncc(OC(C)C)cn1)[C@H](CC(C)C)CO2 [Compound 241],,,,activation at 10 µM (Table 12): > 600%
Cc1cccc(C(C)C)c1-c1cc2nc(n1)NS(=O)(=O)c1cccc(c1)C(=O)N(Cc1cnc(C3CCOCC3)cn1)[C@H](CC(C)C)CO2 [Compound 242],,,,activation at 10 µM (Table 12): > 600%
Cc1cccc(C)c1-c1cc2nc(n1)NS(=O)(=O)c1cccc(c1)C(=O)N(Cc1cncc(N(C)C(C(=O)O)C(C)C)n1)[C@H](CC(C)(C)C)CO2 (some centres unmarked) [Compound 243],,,,activation at 10 µM (Table 12): > 600%
COc1cc(Br)cnc1CN1C(=O)c2cccc(c2)S(=O)(=O)Nc2nc(cc(-c3c(C)cccc3C)n2)OC[C@H]1CC(C)(C)C [Compound 244],,,> 600,
Cc1cccc(C)c1-c1cc2nc(n1)NS(=O)(=O)c1cccc(c1)C(=O)N(Cc1ccc(C(=O)N3CCOCC3)cn1)[C@H](CC(C)(C)C)CO2 [Compound 245],,,> 600,
Cc1cccc(C)c1-c1cc2nc(n1)NS(=O)(=O)c1cccc(c1)C(=O)N(Cc1ccc(C(=O)N3CCC(C)(C)C3)cn1)[C@H](CC(C)(C)C)CO2 [Compound 246],,,> 600,
Cc1cccc(C)c1-c1cc2nc(n1)NS(=O)(=O)c1cccc(c1)C(=O)N(Cc1ccc(C(=O)O)cn1)[C@H](CC(C)(C)C)CO2 [Compound 247],,,30 to 60,
COC(=O)c1ccc(CN2C(=O)c3cccc(c3)S(=O)(=O)Nc3nc(cc(-c4c(C)cccc4C)n3)OC[C@H]2CC(C)(C)C)nc1 [Compound 248],,,> 600,
Cc1cccc(C)c1-c1cc2nc(n1)NS(=O)(=O)c1cccc(c1)C(=O)N(Cc1ccc(N3CCC(C(=O)N(C)C)CC3)cn1)[C@H](CC(C)(C)C)CO2 [Compound 249],,,> 600,
Cc1cccc(C)c1-c1cc2nc(n1)NS(=O)(=O)c1cccc(c1)C(=O)N(Cc1ccc(C#CC(C)(C)CO)cn1)[C@H](CC(C)(C)C)CO2 [Compound 250],< 1,> 60,,
Cc1cccc(C)c1-c1cc2nc(n1)NS(=O)(=O)c1cccc(c1)C(=O)N(Cc1ccc(N3CCC(C(=O)O)CC3)cn1)[C@H](CC(C)(C)C)CO2 [Compound 251],,,30 to 60,
Cc1cccc(C)c1-c1cc2nc(n1)NS(=O)(=O)c1cccc(c1)C(=O)N(Cc1ccc(C3CC3)cn1)[C@H](CC(C)(C)C)CO2 [Compound 252],,,,EC50 (Table 13): < 1 µM; Emax (Table 13): > 60%
CC(=O)N1CCN(c2cccc(CN3C(=O)c4cccc(c4)S(=O)(=O)Nc4nc(cc(-c5c(C)cccc5C)n4)OC[C@H]3CC(C)(C)C)n2)CC1 [Compound 253],,,> 600,
Cc1cccc(C)c1-c1cc2nc(n1)NS(=O)(=O)c1cccc(c1)C(=O)N(Cc1ccc(N3CCC(C(C)(C)O)CC3)cn1)[C@H](CC(C)(C)C)CO2 [Compound 254],,,> 600,

Structure (SMILES),EC50 (Table 12) [µM],Emax (Table 12) [%],activation at 10 µM (Table 13) [%],other results
COC(=O)C1CCN(c2ccc(CN3C(=O)c4cccc(c4)S(=O)(=O)Nc4nc(cc(-c5c(C)cccc5C)n4)OC[C@H]3CC(C)(C)C)nc2)CC1 [Compound 255],,,> 600,
Cc1cccc(C)c1-c1cc2nc(n1)NS(=O)(=O)c1cccc(c1)C(=O)N(C(=O)c1ccccc1)[C@H](CC(C)(C)C)CO2 [Compound 256],,,> 600,
Cc1cccc(C)c1-c1cc2nc(n1)NS(=O)(=O)c1cccc(c1)C(=O)N(Cc1ccc(N3CCCC3=O)cn1)[C@H](CC(C)(C)C)CO2 [Compound 257],,,> 600,
Cc1cccc(C)c1-c1cc2nc(n1)NS(=O)(=O)c1cccc(c1)C(=O)N(Cc1ccc(N3CCC(C(C)(C)C)CC3)cn1)[C@H](CC(C)(C)C)CO2 [Compound 258],,,> 600,
CCC(=O)CN1C(=O)c2cccc(c2)S(=O)(=O)Nc2nc(cc(-c3c(C)cccc3C)n2)OC[C@H]1CC(C)(C)C [Compound 259],,,> 600,
CCC(C)C(CO)N(C)c1cncc(CN2C(=O)c3cccc(c3)S(=O)(=O)Nc3nc(cc(-c4c(C)cccc4C)n3)OC[C@H]2CC(C)(C)C)n1 (some centres unmarked) [Compound 260],< 1,> 60,,
Cc1cccc(C)c1-c1cc2nc(n1)NS(=O)(=O)c1cccc(c1)C(=O)N(Cc1ccc(C3CCOC3)cn1)[C@H](CC(C)(C)C)CO2 (some centres unmarked) [Compound 261],< 1,> 60,,
Cc1cccc(C)c1-c1cc2nc(n1)NS(=O)(=O)c1cccc(c1)C(=O)N(Cc1cncc(N(C)CCOC(C)C)n1)[C@H](CC(C)(C)C)CO2 [Compound 262],< 1,> 60,,
Cc1cccc(C)c1-c1cc2nc(n1)NS(=O)(=O)c1cccc(c1)C(=O)N(Cc1cncc(N3CC(C(=O)O)C(C(C)C)C3)n1)[C@H](CC(C)(C)C)CO2 (some centres unmarked) [Compound 263],,,,activation at 10 µM (Table 12): 30 to 60%
Cc1cccc(C)c1-c1cc2nc(n1)NS(=O)(=O)c1cccc(c1)C(=O)N(Cc1nc(C(C)C)c[nH]1)[C@H](CC(C)(C)C)CO2 [Compound 264],< 1,> 60,,activation at 10 µM (Table 12): < 30%
Cc1cccc(C)c1-c1cc2nc(n1)NS(=O)(=O)c1cccc(c1)C(=O)N(Cc1nc(C(C)C)cn1COCC[Si](C)(C)C)[C@H](CC(C)(C)C)CO2 [Compound 265],,,,activation at 10 µM (Table 12): > 600%
Cc1cccc(C)c1-c1cc2nc(n1)NS(=O)(=O)c1cccc(c1)C(=O)N(Cc1ncc(C(C)C)n1C)[C@H](CC(C)(C)C)CO2 [Compound 266],,,,activation at 10 µM (Table 12): > 600%
Cc1cccc(C)c1-c1cc2nc(n1)NS(=O)(=O)c1cccc(c1)C(=O)N(Cc1nc(C(C)C)cn1C)[C@H](CC(C)(C)C)CO2 [Compound 267],< 1,> 60,,
Cc1cccc(C)c1-c1cc2nc(n1)NS(=O)(=O)c1cccc(c1)C(=O)N(Cc1nc3ccccc3n1C)[C@H](CC(C)(C)C)CO2 [Compound 268],< 1,> 60,,
Cc1cccc(C)c1-c1cc2nc(n1)NS(=O)(=O)c1cccc(c1)C(=O)N(Cc1nc(C)c(C)n1C)[C@H](CC(C)(C)C)CO2 [Compound 269],,,,activation at 10 µM (Table 12): > 600%
Cc1cccc(C)c1-c1cc2nc(n1)NS(=O)(=O)c1cccc(c1)C(=O)N(Cc1cnc(OC(C)C)nc1)[C@H](CC(C)(C)C)CO2 [Compound 270],< 1,> 60,,
Cc1cccc(C)c1-c1cc2nc(n1)NS(=O)(=O)c1cccc(c1)C(=O)N(Cc1cnc(C3CCCCC3)nc1)[C@H](CC(C)(C)C)CO2 [Compound 271],< 1,> 60,,
Cc1cccc(C)c1-c1cc2nc(n1)NS(=O)(=O)c1cccc(c1)C(=O)N(Cc1cnc(N3CCC(C)(C)C3)nc1)[C@H](CC(C)(C)C)CO2 [Compound 272],< 1,> 60,,
